Test results reported in US20020086832A1, “Caspase inhibitors for inhibiting blood cell proliferation and for treating autoimmune diseases” (APOTECH RESEARCH AND DEVELOPMENT LTD., priority 1999, published 2002).
Entries after “also recorded” stand apart in the source; their conditions may differ.

Assays:
Type in all cases: cell-based
[1] = biological target: T1, caspase-8 (Homo sapiens, UniProt Q14790); assay: Western blot of procaspase-8 cleavage in lysates of stimulated human T-lymphocytes; conditions: anti-CD3 antibody and crosslinked sFasL, 6 hours, IETD-fmk 50 μM; FIG. 6
T1 construct: procaspase-8, 55 kDa fraction, or proteolytically cleaved, active caspase-8, 26 kDa fraction, respectively; endogenous in cells; host or cells: human T-lymphocytes stimulated with anti-CD3 antibody and crosslinked sFasL
T1 sequence (Q14790 whole entry): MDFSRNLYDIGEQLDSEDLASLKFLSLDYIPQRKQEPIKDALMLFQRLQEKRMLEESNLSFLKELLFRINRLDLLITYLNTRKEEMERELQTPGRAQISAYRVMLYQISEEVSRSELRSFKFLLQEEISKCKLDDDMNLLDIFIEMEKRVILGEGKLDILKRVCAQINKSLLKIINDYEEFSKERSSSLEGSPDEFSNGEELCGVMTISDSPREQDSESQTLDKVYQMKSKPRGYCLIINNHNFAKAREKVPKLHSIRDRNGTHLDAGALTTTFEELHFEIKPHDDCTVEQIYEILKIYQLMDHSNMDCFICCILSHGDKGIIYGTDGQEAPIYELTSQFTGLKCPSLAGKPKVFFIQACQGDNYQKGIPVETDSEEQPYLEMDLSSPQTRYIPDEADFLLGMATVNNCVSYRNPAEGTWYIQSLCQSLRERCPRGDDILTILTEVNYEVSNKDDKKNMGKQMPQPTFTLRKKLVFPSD
Method: FIG. 6 provides a Western blot. Human T-cells were cultivated either without stimulation (control), with soluble anti-CD3 antibody alone (3 μg/ml), or with anti-CD3 antibody and sFasL (50 ng/ml) which, as described above, is crosslinked via its FLAG sequence. The cell lysates were examined in accordance with the times shown in FIG. 6, with regard to the expression of procaspase-8 or of cleavage products of the procaspase-8.
In a further experimental approach, T-cells were stimulated with a combination of anti-CD3 antibodies and FasL for a period of 6 hours, namely in the presence of 50 µM of the caspase-8 inhibitor IETD-fmk.
After 0, 2, 4, 6 and 22 hours, cells were taken from the different preparations and lysated. The cell lysates were examined with the Western blot technique with respect to their caspase-8 activity (procaspase-8, 55 kDa fraction, or proteolytically cleaved, active caspase-8, 26 kDa fraction, respectively).

[2] = system: IL-2 production of T-lymphocytes; assay: IL-2 concentration in supernatants of stimulated T-lymphocytes/PBL, CTLL bioassay; conditions: FIG. 4; for suppression of IL-2 production: anti-CD3 antibody stimulation (3 μg/ml immobilized), inhibitors 50 µM, supernatants after 24 hours; for IL-2 activity in supernatants / T-cell proliferation as reflected by IL-2 concentration in supernatants: immobilized anti-CD3 antibody (3 μg/ml) with or without crosslinked FasL (50 ng/ml)
Method: FIG. 4 illustrates the correlation of IL-2 expression and the use of caspase inhibitors using a bar diagram. […] The findings shown in FIG. 4 are based on experiments in which 106 ^6 PBL/ml were cultivated with immobilized anti-CD3 antibody (3 μg/ml) and FasL ([…]) in the presence or absence of the caspase inhibitors referred to above (50 µM). The supernatants were removed after 24 hours and examined with the help of a CTLL bioassay for their IL-2 concentration.
For this purpose, T-lymphocytes (10^6/ml) were stimulated with immobilized antiCD3 antibody (3 μg/ml) with or without crosslinked FasL (50 ng/ml). The supernatants of these preparations with a caspase inhibitor or without a caspase inhibitor as control were removed after the stimulation period and their respective IL-2 concentration was measured using a CTTL bioassay. The IL-2 concentration in the supernatants reflects the T-cell proliferation.

[3] = system: human peripheral blood lymphocytes; assay: Proliferation of human PBL/T-cells stimulated with anti-CD3 antibodies, [3H] thymidine incorporation; conditions: for inhibition of the stimulation (cell proliferation) brought about by the anti-CD3: human PBL, inhibitor 25 to 100 μM, four-day cultivation; for inhibition of the stimulation (cell proliferation) brought about by the anti-CD3 / effect on cell proliferation (cpm, [3H] thymidine incorporation): FIG. 1; for effect on cell proliferation (cpm, [3H] thymidine incorporation): human T-cells, 10 μg/ml soluble anti-CD3 antibodies, inhibitor concentrations above 25 μM
Method: For this purpose the T-cells were stimulated with 10 μg/ml soluble anti-CD3 antibodies in the presence of various caspase inhibitors. […] Plotted, the proliferation of the stimulated T-cells (cpm, measured by [^3H] thymidine incorporation) is found as a function of increasing concentrations of caspase inhibitors.
This means that the activity of caspase-8 is significant for the IL-2 production of T-cells. In the experiments on which FIG. 5 is based, PBL were activated with 10 μg/ml soluble anti-CD3 antibody in the presence or absence of zVAD-fink (50 μM) and in the presence of anti-CD3 antibody zVAD-fmk and 500 U/ml recombinant human IL-2, respectively.
For this purpose, the latter were prepared through Ficoll-Hypaque centrifugation. The cells (5×10^4 cells per well) were then cultivated on 96-well plates in the presence of different caspase inhibitors or, for control purposes, in their absence. The concentration of the caspase inhibitors was varied in a range of 25 to 100 μM. Finally, the cells were stimulated through anti-CD3 antibodies (TR66) or through a combined stimulation with anti-CD3 antibodies and soluble recombinant FasL with or without anti-FLAG sequence antibodies 1 μg/ml.
Cell proliferation was measured during the last 18 hours of the four-day cultivation period. The measuring variable for cell proliferation was the incorporation of [^3H] thymidine into the proliferating cells.

proteolytic cleavage of caspase-8 during stimulation [1]	Substance	active 26 kDa caspase-8 fraction/band in Western blot [1]	suppression of IL-2 production [2]	IL-2 activity in supernatants [2]	T-cell proliferation as reflected by IL-2 concentration in supernatants [2]	inhibition of the stimulation (cell proliferation) brought about by the anti-CD3 [3]	effect on cell proliferation (cpm, [3H] thymidine incorporation) [3]	cell proliferation with inhibitor plus exogenous recombinant human IL-2 ([3]; PBL, 10 μg/ml soluble anti-CD3 antibody, zVAD-fmk 50 μM and 500 U/ml IL-2, FIG. 5)	number of cells as against the control ([3]; PBL, 10 μg/ml soluble anti-CD3 antibody, zVAD-fmk 50 μM, FIG. 5)
effectively blocked	IETD-fmk	cannot be detected; also recorded: does not lead to any 26 kDa band being detected	particularly effective	only weak	blocks	complete inhibition	clear inhibiting effect	–	–
–	zVAD-fmk	–	particularly effective	only weak	blocks	complete inhibition; also recorded: partial inhibition	clear inhibiting effect	increases dramatically	clear reduction
